From patent US12144814B2, “Compositions containing paraxanthine and beta-hydroxybutyrate or precursor for increasing neurological and physiological performance” (priority 2023, dated 2024)

Columns and labels:
[1] = cited from earlier work; for Total plasma clearance: in vivo; for half-life: elimination half-life, FIG. 3
dopaminergic neurons = settings: cited from earlier work
mice [2] = assay: Forced Swim Test on mice; type: in vivo
mice [3] = assay: Cook's Pole Climbing Test on mice; type: in vivo
[4] = elevated doses; cited from earlier work
[5] = cited from earlier work
[6] = metabolite of caffeine, FIG. 2; cited from earlier work
[7] = Clinical Stroop Test study; type: in vivo; settings: paraxanthine 200 mg; BHB 5 g; paraxanthine 200 mg with BHB 5 g; 6-week period; FIGS. 15A-15C
Text: The Stroop effect refers to the delay in reaction time between congruent and incongruent stimuli. […] When paired with paraxanthine, the combination provides a synergistic improvement in mental acuity.

[8] = Clinical Resting Energy Expenditure study; type: in vivo; settings: paraxanthine 100 mg or 300 mg; BHB 5 g; paraxanthine 100 mg or 300 mg with BHB 5 g; 180-day period
Description: FIGS. 16A-16B show expected results of a clinical Resting Energy Expenditure study, where participants are supplemented with paraxanthine alone (100 mg or 300 mg), BHB alone (5 g), or paraxanthine (100 mg or 300 mg) in combination with BHB (5 g) over a 180-day period. […] Because of the presence of the BHB ketone body component, such increased metabolic rate is also more likely to occur within the context of ketogenic state, where fat is principally used as the caloric energy source for the increased resting metabolic rate.

healthy young adults [9] = assay: Go/No Go Attention and Inhibitory Control Test; type: in vivo; settings: 200 mg paraxanthine; 5 g BHB; 200 mg paraxanthine and 5 g BHB; baseline and 1-6 hours after supplementation; FIG. 4
Text: Attention and inhibitory control can be measured using a Go/No Go Test, which is used to measure a participant's capacity for sustained attention and response control. The Go/No Go Test is routinely used in the field, and will be familiar to those of skill in the art. In the Go/No Go Test, participants watch a 2×2 array of squares, and then there is a successive presentation of letters (e.g., either P or R) and the participant responds to a target letter by pressing the corresponding button on a keyboard. The single letter (P or R) is presented in one of the 4 squares for 500 milliseconds, with 1500 milliseconds between subsequent stimuli. For the P-Go condition, participants are asked to press the P key in response to the letter P, and abstain from responding to the letter R. For the R-reversal condition, the participants are asked to respond to the letter R, and abstain when seeing the letter P. Mean response time, as well as percentage of correct answers are recorded. When running each such tests, subjects are given either paraxanthine+BHB, paraxanthine alone, BHB alone, or a placebo. The dosage amounts are 200 mg paraxanthine and 5 g of BHB, 200 mg of paraxanthine alone, 5 g of BHB alone, or a placebo. The testing is conducted under double blind, placebo controlled conditions. […]

healthy young adults [10] = assay: Vigilance Task Test; type: in vivo; settings: 200 mg paraxanthine; 5 g BHB; 200 mg paraxanthine and 5 g BHB; baseline and 1-6 hours after supplementation; FIG. 6
Text: The Vigilance Task Test is another test routinely used in the field, and is used to evaluate a participants ability to sustain attention. The Vigilance Task Test is a sustained attention, reaction timed task test that measures the speed with which participants respond to a visual stimulus. The subjects respond to visual stimuli (e.g., a red dot) by pressing a key as soon as it appears on the computer screen. The light turns on at random, e.g., roughly every couple of seconds or so during the test. The speed of response is measured. Due to the random nature of the test, there is no learning effect. Mean response time is recorded. When running each such tests, subjects are given either paraxanthine+BHB, paraxanthine alone, BHB alone, or a placebo. The dosage amounts are 200 mg paraxanthine and 5 g of BHB, 200 mg of paraxanthine alone, 5 g of BHB alone, or a placebo. The testing is conducted under double blind, placebo controlled conditions. The subjects include 13 healthy young adults (10 male, 3 female), aged 24±5 years; height 170.0±11.8 cm; weight 72.9±19.3 kg.

[11] = Age-related cognitive decline study; type: in vivo; settings: BHB 5 g

Compound: Cn1c(=O)c2c(ncn2C)n(C)c1=O [caffeine]
- Total plasma clearance [1]: 2.07 mL/min/kg
- protection against neurodegeneration and the loss of synaptic function (dopaminergic neurons): marginal protection

Compound: CCNC(=O)CC[C@H](N)C(=O)O [L-Theanine, L-theanine]
- Duration of Immobility (mice [2]; L-Theanine 50 mg): 8.74 min
- Duration of mobility/active swimming (mice [2]; L-Theanine 50 mg): 21.26 min
- No. of Climbing (mice [3]; L-Theanine 50 mg): 4.38

Compound: NC(=O)C[S+]([O-])C(c1ccccc1)c1ccccc1 (centres unmarked) [modafinil]
- hypothermia and reduced locomotor activity [4]: induce hypothermia and reduced locomotor activity

Compound: CC(O)CC(=O)O (stereo not drawn) [beta-hydroxybutyric acid]
- pKa [5]: 4.70

Compound: Cn1cnc2c1c(=O)[nH]c(=O)n2C [theobromine]
- half-life [1]: 7.2 h
- Total plasma clearance [1]: 1.2 mL/min/kg

Compound: NCCS(=O)(=O)O [Taurine, taurine]
- Duration of Immobility (mice [2]; Taurine 500 mg): 9.61 min
- Duration of mobility/active swimming (mice [2]; Taurine 500 mg): 20.39 min
- No. of Climbing (mice [3]; Taurine 500 mg): 6.5

Compound: Cn1c(=O)c2[nH]cnc2n(C)c1=O [theophylline]
- half-life [1]: 6.2 h
- Total plasma clearance [1]: 0.93 mL/min/kg
- share of the methylxanthine metabolic by-products [6]: 4%

Compound: C[N+](C)(C)CCOP(=O)([O-])OC[C@H](O)CO [Alpha-GPC]
- Duration of Immobility (mice [2]; Alpha-GPC 200 mg): 9.38 min
- Duration of mobility/active swimming (mice [2]; Alpha-GPC 200 mg): 20.63 min
- No. of Climbing (mice [3]; Alpha-GPC 200 mg): 5.5

Compound: CC(O)CC(=O)O (stereo not drawn) [BHB, beta-hydroxybutyrate]
- Duration of Immobility (mice [2]; BHB 5 g): 9.5 min
- Duration of mobility/active swimming (mice [2]; BHB 5 g): 20 min
- Stroop test number of correct answers [7]: little if any benefit
- Stroop test reaction speed [7]: little if any benefit
- resting energy expenditure [8]: only a minor benefit
- Go/No Go Test correct responses (healthy young adults [9]): decrease in correct answers over time
- No. of Climbing (mice [3]; BHB 5 g): 6
- Vigilance Task Test average response time (healthy young adults [10]): significantly slower reaction times
- Acetylcholine [11]: 58 U/mL
- BDNF [11]: 775 pg/mL
- Catalase [11]: 28 U/mL
- Dopamine [11]: 475 ng/L
- Escape Latency [11]: 50 s
- Glutathione [11]: 22 µg/mL
